Results published in patent US20260364186A1, “Chemical Conjugates, Compositions, and Methods of Preparation and Use Thereof” (Transfection Holdings Limited, priority 2022, published 2026).

Columns and labels:
Type in all cases: cell-based, human
[1] = test system: HT29 (colorectal cancer cell line); test: FACS uptake of BODIPY FL conjugates (Example 4); conditions: 200 nM, 5 min
Experimental: FIG. 4A: Conjugate compounds coupled to BODIPY FL were tested for uptake using 200 nM each conjugate and 5 minute incubation with colorectal cancer cell line HT29. Mean fluorescent intensities (MFI). 1,000 cells were sorted by FACS.
Materials and methods: The HT-29 line was originally isolated from a primary tumour in 1964 from a person. This cell line is positive for expression of N-ras and overexpression of p53 antigen. The human colon adenocarcinoma cell line HT29, is not only used to study the biology of human colon cancers, but it is receiving special interest in studies focused on food digestion and bioavailability due to the ability to express characteristics of mature intestinal cells. The application of this cell line to transport studies of drugs and food compounds is illustrated, especially when the effect of the mucus layer is considered or used as co-culture in combination with Caco-2 cells. These cells have shown a high rate of glucose consumption and therefore, they require high glucose concentration in the medium. Verhoeck et al., 2015.
For these experiments, HT-29 or MEF cells were diluted on αMEM media (supplemented with 10% FBS+1% penicillin-streptomycin) to give a 250 cells/μL suspension of which 200 μL were aliquoted into each well of a 96 well plate followed by incubation for 24 hours. Next, 2 μL of 100 μM stock solutions in DMSO from the conjugates coupled to BODIPY were diluted with 998 μL of αMEM media to give a 200 nM solution. After 24 hour incubation, media was removed and 200 μL of 138 and pantothenic acid/pantothenic acid derivatives coupled to BODIPY 200 nM solutions were added and cells were incubated for 5 minutes at 37 °C. After 5 minutes, the compounds and DMSO solutions were removed and cells were washed with PBS. Then, 100 μL of TrypLE trypsin were added to each well and incubated for 5 minutes at 37 °C. After this time, 100 μL of DMEM media were added to the wells and samples were sorted through FACS biosort. The studies were completed in duplicated wells.

[2] = test system: monocytes; test: FACS uptake of BODIPY FL conjugates in PBMCs (Example 3); conditions: 135 nM
Experimental: (§1) FIG. 3A. Conjugate compounds coupled to BODIPY FL were tested for uptake using 135 nM each conjugate and 4.5 minute incubation with human lymphocytes, monocytes and neutrophils (from a healthy donor). Mean fluorescent intensities (MFI). 1,000 cells (lymphocytes), 500 cells (monocytes) and 250 cells (neutrophils) sorted by FACS. Bars represent mean±SD. Results represent a single experiment done in duplicate.
(§2) In addition to this, 25 mL of full blood was collected from a healthy donor in lithium-heparin vacutainer. Peripheral blood mononuclear cells (PBMCs) were collected after ficoll separation. PBMCs then were centrifuge at 400 g for 5 minutes. Supernatant was removed from the cells and resuspended with 20 mL of HBSS with a final concentration of 417,500 cells/mL. Then, 479 μL of cells suspension were poured into Eppendorf tube and 1000 μL of 200 nM drug solution in HBSS were added to afford 135 nM final drug concentration, incubated at 37 °C for 5 minutes. After incubation time, PBMCs were centrifuged at 400 g for 5 minutes. Supernatant was removed from the cells and pellet resuspended with 200 μL of HBSS. Suspension was transferred to 96 well-plate and run on FACS machine, approximately 1,000-250 cells analysed. The FACS results output represented the mean of the fluorescence intensities (in arbitrary units) measured for cells sorted in every sample.

[3] = test system: neutrophils; test: as above; conditions: 135 nM
Experimental: as §1, §2

[4] = test system: Jurkat cells; test: FACS uptake of BODIPY FL conjugates in Jurkat cells (Example 3); conditions: 200 nM
Experimental: FIG. 3B: Conjugate compounds coupled to BODIPY FL were tested for uptake using 200 nM each conjugate and 5 minute incubation with immortalized T lymphocyte cell line, Jurkat cells. Mean fluorescent intensities (MFI). 1,000 cells sorted by FACS. Bars represent mean±SD. Results represent a single experiment done in duplicate.
Materials and methods: Jurkat cells have been previously shown to be defective in the expression of two lipid phosphatases, PTEN (phosphatase and tensin homologue) and SHIP (SH2-domain-containing inositol polyphosphate 5′ phosphatase). The biological implications of SHIP deficiency in T cells remain under evaluation, but the loss of PTEN leads to activation of the phosphatidylinositol 3-kinase (PI3K)-signalling pathway. See Abraham and Weiss, 2004. This activation of PI3K protein is also on NZM40 melanoma cell line, and represents a key mutation for its sustained proliferation. See Silva et al., 2017. For these experiments, Jurkat cells were diluted on RPMI media (supplemented with 10% FBS+1% penicillin-streptomycin) to afford 400 cells/μL. 2 μL of 100 μM stock solutions in DMSO from 138 and pantothenic acid/pantothenic acid derivatives coupled to BODIPY were diluted with 998 μL of RPMI media (supplemented with 10% FBS+1% penicillin-streptomycin) to afford 200 nM solution. 100,000 cells were dispensed to Eppendorf tubes, centrifuged for 1.5 min at 5000 rcf and the supernatant was removed. The cells then were incubated with 500 μL of solutions at 200 nM for 4.5 min and 37 °C. After the incubation time, cells were centrifuged for 1.5 minutes at 5000 rcf. Supernatant was removed and cell pellet re-suspended in 200 μL fresh RPMI media, transferred to 96 well-plate and run on FACS machine, approximately 1,000 cells analysed.

[5] = test system: NZM40 (NRAS Q16H) melanoma cells; test: FACS uptake of BODIPY FL conjugates, 200 nM, 5 min (Example 2)
Experimental: FIG. 2. Conjugate compounds coupled to BODIPY FL were tested for uptake using 200 nM each conjugate and 5 minute incubation with melanoma cell line NZM11 (BRAF V600E mutant metastatic melanoma), melanoma cell line NZM40 (NRAS Q16H mutant metastatic melanoma) and melanoma cell line NZM9 (BRAF and NRAS wildtype metastatic melanoma). Mean fluorescent intensities (MFI). 2,000 cells (NZM11), 1,000 cells (NZM40) and 500-1,000 cells (NZM9). Cells were sorted by FACS. Bars represent mean±SD. Results were from a single experiment done in triplicate.
NZM40 is an adherent cell line which was originally derived from a metastatic melanoma from a patient, in 2004. This human metastatic melanoma is identified with code CBA-1381 from Cell bank Australia. […] Ras is a superfamily of proteins implicated in cell growth, survival and differentiation. NRAS (neuroblastoma rat sarcoma) was the first oncogene recognized in melanoma and mutations in NRAS account for 20% of all melanomas. NRAS mutations primarily occur at position 61 and involve amino acid change from glutamine (Q) to arginine (R), lysine (K), leucine (L) or histidine (H). These mutations block NRAS into a GTP-bound state damaging its GTPase activity (FIG. 1). Patients are usually older (>55 years) with previous UV exposure. See Garcia-Alverez et al., 2021.
For screening, NZM11, NZM40 and NZM9 cells were suspended at […] dispensed into 96 well plates and left to settle for 48 hours. Then, 10 μL of 10 mM stock solutions in DMSO for the conjugates were diluted with HBSS to afford 400 nM solution. Next, 400 nM compounds and DMSO solutions were diluted 1:1 with MEMα media to afford 200 nM solutions. After 48 hours the media was removed from the 96 well plates and 200 μL of 200 nM conjugates solutions dispensed to each well (in triplicate) and incubated for 5 minutes at 37 °C. After 5 minutes, the media was removed and cells washed with PBS. Then, 100 μL of TrypLE trypsin (ThermoFisher Scientific) were added to each well and incubated for 5 minutes at 37 °C after which, 100 μL of MEMα media were added and samples were sorted through FACS biosort. The FACS results output were represented as the mean of the fluorescence intensities (in arbitrary units) measured for cells sorted in every sample.

Structure (SMILES) | uptake (fluorescent intensities) [1] | targeting / fluorescence intensities [2] | targeting / fluorescence intensities [3] | uptake / targeting [4] | uptake (fluorescence intensities) [5]
CC1=CC(C)=[N+]2C1=Cc1ccc(CCCn3cc(CCNC(=O)/C=C/NC(=O)[C@H]4OC(C)(C)OCC4(C)C)nn3)n1[B-]2(F)F [Compound 127, (E)-N-((((3-[4,4-Difluoro-5,7-dimethyl-4-bora-3a,4a-diaza-s-indacene-3-yl]propyl)-1H-1,2,3-triazol-4-yl)ethylamino)-3-oxoprop-1-enyl)-2,2,5,5-tetramethyl-1,3-dioxane-4-carboxamide] | moderately higher fluorescent intensities | showed targeting | showed targeting | showed targeting | showed selectivity
CC1=CC(C)=[N+]2C1=Cc1ccc(CCCn3cc(CCNC(=O)/C=C\NC(=O)[C@H](O)C(C)(C)CO)nn3)n1[B-]2(F)F [Compound 128, (Z)—N-((((3-[4,4-Difluoro-5,7-dimethyl-4-bora-3a,4a-diaza-s-indacene-3-yl]propyl)-1H-1,2,3-triazol-4-yl)ethylamino)-3-oxoprop-1-enyl)-2,4-dihydroxy-3,3-dimethylbutanamide] |  | significant intensities | significant intensities | showed targeting | showed selectivity
